# pEC50: −log10 of the molar value.
# Biological target: T1, Full-length glucokinase (beta cell isoform) (Homo sapiens, UniProt P35557)
# T1 construct: Full-length glucokinase (beta cell isoform) was His-tagged at N-terminus; His tag (N); made in house
# T1 sequence (P35557 1-465): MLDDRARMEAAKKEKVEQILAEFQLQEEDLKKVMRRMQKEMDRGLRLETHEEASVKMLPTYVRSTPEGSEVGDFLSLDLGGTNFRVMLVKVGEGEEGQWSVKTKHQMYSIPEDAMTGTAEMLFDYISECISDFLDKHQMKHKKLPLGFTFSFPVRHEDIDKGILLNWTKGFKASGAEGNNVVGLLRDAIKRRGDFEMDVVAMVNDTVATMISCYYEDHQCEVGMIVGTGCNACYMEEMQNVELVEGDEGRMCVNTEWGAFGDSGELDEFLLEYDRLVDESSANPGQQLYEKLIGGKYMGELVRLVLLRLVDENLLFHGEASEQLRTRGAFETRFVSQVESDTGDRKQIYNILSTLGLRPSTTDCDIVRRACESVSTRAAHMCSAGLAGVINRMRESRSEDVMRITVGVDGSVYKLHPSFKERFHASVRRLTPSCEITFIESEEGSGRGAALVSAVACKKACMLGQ
# Assay: Glucokinase biochemical assay (PK/LDH-coupled, NADH depletion at 340 nm): % activation, EC50, % max activation
# Details: 5 mM glucose; for activation at 10 µM / % Activation at 10 uM: 10 uM compound, % Activation=(Va/Vo−1)×100; for activation at 10 µM: read-out: % Activation at 10 uM; for pEC50: GK activation, read-out: EC50; for Emax / % Max Activation: fitted maximum activation; for Emax: read-out: % Max Activation
# Procedure: Full-length glucokinase (beta cell isoform) was His-tagged at N-terminus and purified by a Ni column followed by size exclusion chromatography. Glucose was obtained from Calbiochem, and other reagents were from Sigma.
# All assays were performed in a Corning 96-well plate using Spectramax PLUS spectrophotometer (Molecular Devices) at room temperature. The final assay volume was 100 uL. The buffer conditions used in this assay were as follows: 50 mM HEPES, 5 mM glucose, 1 mM ATP, 2 mM MgCl2, 0.7mM NADH, 2 mM DTT, 1 Unit/mL PK/LDH, 0.2 mM phosphoenolpyruvate, 25 mM KCl. Tested compound in DMSO solution was added to the buffer and mixed well by a plate shaker for 1 minute. The final concentration of DMSO introduced into the assay was 1%.
# Glucokinase was added to the buffer mixture to initiate the reaction in the presence and absence of compound. Reaction was monitored by absorbance at 340nm due to the depletion of NADH. The initial reaction velocity was measured by the slope of a linear time course of 200-900 sec.
# The percentage of activation was calculated by the following equation: % Activation=(Va/Vo−1)×100;
# wherein each of Va and Vo is defined as the initial reaction velocity in the presence and absence of the tested compound, respectively.
# The GK activities were measured as a function of compound concentrations.
Structure (SMILES),activation at 10 µM [%],pEC50,Emax [%],% Activation at 10 uM [%],% Max Activation [%]
"CCc1nnc(NC(=O)c2cc(Oc3ccc(S(C)(=O)=O)cc3)c3c(c2)OC(C)(C)C3)s1 [Example 27, 4-(4-Methanesulfonyl-phenoxy)-2,2-dimethyl-2,3-dihydro-benzofuran-6-carboxylic acid(5-ethyl-[1,3,4]thiadiazol-2-yl)-amide]",112,5.96,112,–,–
"CC1(C)Cc2c(Oc3ccc(S(C)(=O)=O)cc3)cc(C(=O)Nc3nnc(C4CC4)s3)cc2O1 [Example 28, 4-(4-Methanesulfonyl-phenoxy)-2,2-dimethyl-2,3-dihydro-benzofuran-6-carboxylic acid(5-cyclopropyl-[1,3,4]thiadiazol-2-yl)-amide]",123,5.70,158,–,–
"CCn1ncc(NC(=O)c2cc(Oc3ccc(S(C)(=O)=O)cc3)c3c(c2)OC(C)(C)C3)n1 [Example 29, 4-(4-Methanesulfonyl-phenoxy)-2,2-dimethyl-2,3-dihydro-benzofuran-6-carboxylic acid(2-ethyl-2H-[1,2,3]triazol-4-yl)-amide]",284,6.60,255,–,–
"COCc1nnc(NC(=O)c2cc(Oc3ccc(S(C)(=O)=O)cc3)c3c(c2)OC(C)(C)C3)s1 [Example 30, 4-(4-Methanesulfonyl-phenoxy)-2,2-dimethyl-2,3-dihydro-benzofuran-6-carboxylic acid(5-methoxymethyl-[1,3,4]thiadiazol-2-yl)-amide]",144,5.38,183,–,–
"Cn1ccc(NC(=O)c2cc(Oc3ccc(C#N)cc3F)c3c(c2)OC(C)(C)C3)n1 [Example 31, 4-(4-Cyano-2-fluoro-phenoxy)-2,2-dimethyl-2,3-dihydro-benzofuran-6-carbo-xylic acid(1-methyl-1H-pyrazol-3-yl)-amide]",135,5.68,153,–,–
"Cn1ccc(NC(=O)c2cc(Oc3ccc(C(=O)N4CCC4)cc3F)c3c(c2)OC(C)(C)C3)n1 [Example 32, 4-[4-(Azetidine-1-carbonyl)-2-fluoro-phenoxy]-2,2-dimethyl-2,3-dihydro-benzo-furan-6-carboxylic acid(1-methyl-1H-pyrazol-3-yl)-amide]",164,6.68,177,–,–
"Cn1ccc(NC(=O)c2cc(Oc3ccc(C(=O)N4CCC4)c(F)c3)c3c(c2)OC(C)(C)C3)n1 [Example 33, 4-[4-(Azetidine-1-carbonyl)-3-fluoro-phenoxy]-2,2-dimethyl-2,3-dihydro-benzofuran-6-carboxylic acid(1-methyl-1H-pyrazol-3-yl)-amide]",–,7.18,–,170,171
"Cn1ccc(NC(=O)c2cc(Oc3cc(F)ccc3C(=O)N3CCC3)c3c(c2)OC(C)(C)C3)n1 [Example 34, 4-[2-(Azetidine-1-carbonyl)-5-fluoro-phenoxy]-2,2-dimethyl-2,3-dihydro-benzofuran-6-carboxylic acid(1-methyl-1H-pyrazol-3-yl)-amide]",75.1,< 5.00,–,–,–
"Cn1ccc(NC(=O)c2cc(Oc3ccc(C(=O)N4CCC4)cc3)c3c(c2)OC(C)(C)C3)n1 [Example 35, 4-[4-(Azetidine-1-carbonyl)-phenoxy]-2,2-dimethyl-2,3-dihydro-benzofuran-6-carboxylic acid(1-methyl-1H-pyrazol-3-yl)-amide]",145,6.98,145,–,–
"Cn1ccc(NC(=O)c2cc(Oc3cccc(S(C)(=O)=O)c3)c3c(c2)OC(C)(C)C3)n1 [Example 36, 4-(3-Methanesulfonyl-phenoxy)-2,2-dimethyl-2,3-dihydro-benzofuran-6-carboxylic acid(1-methyl-1H-pyrazol-3-yl)-amide]",130,5.96,149,–,–
"Cn1ccc(NC(=O)c2cc(Oc3cccc(C(=O)N4CCC4)c3)c3c(c2)OC(C)(C)C3)n1 [Example 37, 4-[3-(Azetidine-1-carbonyl)-phenoxy]-2,2-dimethyl-2,3-dihydro-benzofuran-6-carboxylic acid(1-methyl-1H-pyrazol-3-yl)-amide]",107,6.05,143,–,–
"Cn1ccc(NC(=O)c2cc(Oc3ccc(C(F)F)cc3)c3c(c2)OC(C)(C)C3)n1 [Example 38, 4-(4-Difluoromethyl-phenoxy)-2,2-dimethyl-2,3-dihydro-benzofuran-6-carboxylic acid(1-methyl-1H-pyrazol-3-yl)-amide]",109,5.62,149,–,–
"CN(C)Cc1ccc(Oc2cc(C(=O)Nc3ccn(C)n3)cc3c2CC(C)(C)O3)c(F)c1 [Example 39, 4-(4-Dimethylaminomethyl-2-fluoro-phenoxy)-2,2-dimethyl-2,3-dihydro-benzofuran-6-carboxylic acid(1-methyl-1H-pyrazol-3-yl)-amide]",105,5.70,133,–,–
"Cn1ccc(NC(=O)c2cc(Oc3ccc(CO)cc3F)c3c(c2)OC(C)(C)C3)n1 [Example 40, 4-(2-Fluoro-4-hydroxymethyl-phenoxy)-2,2-dimethyl-2,3-dihydro-benzofuran-6-carboxylic acid(1-methyl-1H-pyrazol-3-yl)-amide]",–,5.44,–,109,150
"Cn1ccc(NC(=O)c2cc(Oc3ccc(C(=O)N4CCOCC4)cc3F)c3c(c2)OC(C)(C)C3)n1 [Example 41, 4-[2-Fluoro-4-(morpholine-4-carbonyl)-phenoxy]-2,2-dimethyl-2,3-dihydro-benzofuran-6-carboxylic acid(1-methyl-1H-pyrazol-3-yl)-amide]",138,5.85,141,–,–
"CN1CCN(C(=O)c2ccc(Oc3cc(C(=O)Nc4ccn(C)n4)cc4c3CC(C)(C)O4)c(F)c2)CC1 [Example 42, 4-[2-Fluoro-4-(4-methyl-piperazine-1-carbonyl)-phenoxy]-2,2-dimethyl-2,3-dihydro-benzofuran-6-carboxylic acid(1-methyl-1H-pyrazol-3-yl)-amide]",128,5.64,139,–,–
"Cn1ccc(NC(=O)c2cc(Oc3ccc(C(=O)N4CC(F)(F)C4)cc3F)c3c(c2)OC(C)(C)C3)n1 [Example 43, 4-[4-(3,3-Difluoro-azetidine-1-carbonyl)-2-fluoro-phenoxy]-2,2-dimethyl-2,3-dihydro-benzofuran-6-carboxylic acid(1-methyl-1H-pyrazol-3-yl)-amide]",164,6.14,174,–,–
"CN(C)C1CN(C(=O)c2ccc(Oc3cc(C(=O)Nc4ccn(C)n4)cc4c3CC(C)(C)O4)c(F)c2)C1 [Example 44, 4-[4-(3-Dimethylamino-azetidine-1-carbonyl)-2-fluoro-phenoxy]-2,2-dimethyl-2,3-dihydro-benzofuran-6-carboxylic acid(1-methyl-1H-pyrazol-3-yl)-amide]",137,6.24,146,–,–
"Cn1ccc(NC(=O)c2cc(Oc3ccc(C(=O)N4CC(O)C4)cc3F)c3c(c2)OC(C)(C)C3)n1 [Example 45, 4-[2-Fluoro-4-(3-hydroxy-azetidine-1-carbonyl)-phenoxy]-2,2-dimethyl-2,3-dihydro-benzofuran-6-carboxylic acid(1-methyl-1H-pyrazol-3-yl)-amide]",150,6.24,146,–,–
